Measured values as given in patent US20180298010A1, “PRMT5 INHIBITORS AND USES THEREOF” (Epizyme, Inc., priority 2012, published 2018).

molecular target: T1, PRMT5/MEP50 (Homo sapiens, UniProt O14744); experiment: PRMT5 Biochemical Assay (PRMT5/MEP50 enzyme assay on peptide substrate, 3H-SAM Flashplate)
T1 construct: Flag-PRMT5; 6His-MEP50
Description: General Materials. S-adenosylmethionine (SAM), S-adenosylhomocysteine (SAH), bicine, KCl, Tween20, dimethylsulfoxide (DMSO), bovine skin gelatin (BSG), and Tris(2-carboxyethyl)phosphine hydrochloride solution (TCEP) were purchased from Sigma-Aldrich at the highest level of purity possible. ^3H-SAM was purchase from American Radiolabeled Chemicals with a specific activity of 80 Ci/mmol. 384-well streptavidin Flashplates were purchased from PerkinElmer.
Substrates. Peptide representative of human histone H4 residues 1-15 was synthesized with a C-terminal linker-affinity tag motif and a C-terminal amide cap by 21st Century Biochemicals. The peptide was high high-perfomance liquid chromatography (HPLC) purified to greater than 95% purity and confirmed by liquid chromatography mass spectrometry (LC-MS). The sequence was Ac-[…][K-Biot]-amide (SEQ ID NO.:3).
Molecular Biology: Full-length human PRMT5 (NM_006109.3) transcript variant 1 clone was amplified from a fetal brain cDNA library, incorporating flanking 5′ sequence encoding a FLAG tag ([…]) (SEQ ID NO.:4) fused directly to Ala 2 of PRMT5. Full-length human MEP50 (NM_024102) clone was amplified from a human testis cDNA library incorporating a 5′ sequence encoding a 6-histidine tag (MHHHHHH) (SEQ ID NO.:5) fused directly to Arg 2 of MEP50. The amplified genes were sublconed into pENTR/D/TEV (Life Technologies) and subsequently transferred by Gateway™ attL×attR recombination to pDEST8 baculvirus expression vector (Life Technologies).
Protein Expression. Recombinant baculovirus and Baculovirus-Infected Insect Cells (BIIC) were generated according to Bac-to-Bac kit instructions (Life Technologies) and Wasilko, 2006, respectively. Protein over-expression was accomplished by infecting exponentially growing Spodoptera frugiperda (SF9) cell culture at 1.2×10^6cell/ml with a 5000 fold dilution of BIIC stock. Infections were carried out at 27° C. for 72 hours, harvested by centrifugation, and stored at −80° C. for purification.
Protein Purification. […] Flag-PRMT5/6His-MeP50 was eluted with 300 mM Imidazole in the same buffer. The purity of recovered protein was 87%. Reference: Wasilko, D. J. and S. E. Lee: “TIPS: titerless infected-cells preservation and scale-up” Bioprocess J., 5 (2006), pp. 29-32.
General Procedure for PRMT5/MEP50 Enzyme Assays on Peptide Substrates. The assays were all performed in a buffer consisting of 20 mM Bicine (pH=7.6), 1 mM TCEP, 0.005% BSG, and 0.002% Tween20, prepared on the day of use. Compounds in 100% DMSO (1 ul) were spotted into a polypropylene 384-well V-bottom plates (Greiner) using a Platemate Plus outfitted with a 384-channel head (Thermo Scientific). DMSO (1 ul) was added to Columns 11, 12, 23, 24, rows A-H for the maximum signal control and 1 ul of SAH, a known product and inhibitor of PRMT5/MEP50, was added to columns 11, 12, 23, 24, rows I-P for the minimum signal control. A cocktail (40 ul) containing the PRMT5/MEP50 enzyme and the peptide was added by Multidrop Combi (Thermo-Fisher). The compounds were allowed to incubate with PRMT5/MEP50 for 30 min at 25 degrees Celsius, then a cocktail (10 ul) containing ^3H-SAM was added to initiate the reaction (final volume=51 ul). The final concentrations of the components were as follows: PRMT5/MEP50 was 4 nM, ^3H-SAM was 75 nM, peptide was 40 nM, SAH in the minimum signal control wells was 100 uM, and the DMSO concentration was […]. The assays were stopped by the addition of non-radioactive SAM (10 ul) to a final concentration of 600 uM, which dilutes the ^3H-SAM to a level where its incorporation into the peptide substrate is no longer detectable. 50 ul of the reaction in the 384-well polypropylene plate was then transferred to a 384-well Flashplate and the biotinylated peptides were allowed to bind to the streptavidin surface for at least 1 hour before being washed three times with 0.1% Tween20 in a Biotek ELx405 plate washer. […]

T1 sequence (O14744 with tags, fused parts or gaps): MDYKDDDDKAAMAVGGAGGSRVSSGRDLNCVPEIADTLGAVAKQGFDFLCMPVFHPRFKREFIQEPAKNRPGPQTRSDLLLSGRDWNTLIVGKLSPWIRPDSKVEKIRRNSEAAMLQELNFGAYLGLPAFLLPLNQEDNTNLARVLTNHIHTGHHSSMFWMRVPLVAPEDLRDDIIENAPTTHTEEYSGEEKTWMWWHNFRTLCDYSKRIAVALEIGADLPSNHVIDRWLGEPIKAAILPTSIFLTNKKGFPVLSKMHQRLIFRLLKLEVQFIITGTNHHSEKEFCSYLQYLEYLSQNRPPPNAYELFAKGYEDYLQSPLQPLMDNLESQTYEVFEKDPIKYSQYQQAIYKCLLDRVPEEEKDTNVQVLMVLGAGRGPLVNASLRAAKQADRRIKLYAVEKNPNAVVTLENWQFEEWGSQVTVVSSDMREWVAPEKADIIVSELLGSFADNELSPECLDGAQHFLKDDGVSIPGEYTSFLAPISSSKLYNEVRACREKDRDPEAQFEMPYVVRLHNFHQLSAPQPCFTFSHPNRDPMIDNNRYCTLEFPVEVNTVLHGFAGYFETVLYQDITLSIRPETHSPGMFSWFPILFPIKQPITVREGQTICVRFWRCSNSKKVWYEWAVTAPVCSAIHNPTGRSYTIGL
T1 sequence (Q9BQA1 with tags, fused parts or gaps partner): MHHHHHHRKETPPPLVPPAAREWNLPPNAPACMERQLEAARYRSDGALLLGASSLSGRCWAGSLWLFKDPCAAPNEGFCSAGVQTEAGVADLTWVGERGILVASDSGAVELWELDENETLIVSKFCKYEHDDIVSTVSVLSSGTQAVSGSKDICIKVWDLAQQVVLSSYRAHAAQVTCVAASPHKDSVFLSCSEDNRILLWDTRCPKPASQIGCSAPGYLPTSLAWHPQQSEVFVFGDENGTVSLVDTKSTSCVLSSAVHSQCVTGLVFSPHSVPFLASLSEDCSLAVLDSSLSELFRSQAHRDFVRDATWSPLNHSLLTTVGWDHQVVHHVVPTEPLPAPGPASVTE

Row | Compound | IC50 [nM]
1 | OC(COc1cccc(CNC2CCCC2)c1)CN1CCc2ccccc2C1 (centres unmarked) [Compound 1] | 101 to 1000
2 | OC(COC1CCCN(c2ccccc2)C1)CN1CCc2ccccc2C1 (centres unmarked) [Compound 2] | 1000 to 10000
3 | OC(COc1ccc(OCC(O)CN2CCc3ccccc3C2)cc1)CN1CCc2ccccc2C1 (centres unmarked) [Compound 3] | 101 to 1000
4 | OC(COc1cccc(CNC2CCCCC2)c1)CN1CCc2ccccc2C1 (centres unmarked) [Compound 4] | 101 to 1000
5 | OC(COc1cccc(CNC2CCOCC2)c1)CN1CCc2ccccc2C1 (centres unmarked) [Compound 5, 1-(3,4-dihydroisoquinolin-2(1H)-yl)-3-(3-(((tetrahydro-2H-pyran-4-yl)amino)methyl)phenoxy)propan-2-ol] | 101 to 1000
6 | OC(COc1cccc(CNc2cc[nH]n2)c1)CN1CCc2ccccc2C1 (centres unmarked) [Compound 6, 1-(3-(((1H-pyrazol-3-yl)amino)methyl)phenoxy)-3-(3,4-dihydroisoquinolin-2(1H)-yl)propan-2-ol] | 101 to 1000
7 | OC(COc1ccccc1N1CCNCC1)CN1CCc2ccccc2C1 (centres unmarked) [Compound 7] | 10000 to 40000
8 | OC(COc1ccccc1C1CCCCC1)CN1CCc2ccccc2C1 (centres unmarked) [Compound 8] | 1000 to 10000
9 | OC(COc1ccc(-n2cncn2)cc1)CN1CCc2ccccc2C1 (centres unmarked) [Compound 9] | 1000 to 10000
10 | OC(COc1ccc(Cc2ccccc2)cc1)CN1CCc2ccccc2C1 (centres unmarked) [Compound 10] | 101 to 1000
11 | OC(COCc1cc(-c2ccc(Cl)cc2)no1)CN1CCc2ccccc2C1 (centres unmarked) [Compound 11] | 101 to 1000
12 | OC(COCc1ccc(OCc2ccccc2)cc1)CN1CCc2ccccc2C1 (centres unmarked) [Compound 12] | 1000 to 10000
13 | OC(COc1cccc(CNC2CCNCC2)c1)CN1CCc2ccccc2C1 (centres unmarked) [Compound 13] | 1000 to 10000
14 | OC(COc1cccc(CN2CCCCC2)c1)CN1CCc2ccccc2C1 (centres unmarked) [Compound 14] | 1000 to 10000
15 | OC(COc1cccc2ccc(N3CCOCC3)nc12)CN1CCc2ccccc2C1 (centres unmarked) [Compound 15] | 1000 to 10000
16 | OC(COc1ccccc1-c1ccno1)CN1CCc2ccccc2C1 (centres unmarked) [Compound 16] | 1000 to 10000
17 | Cc1cc(OCC(O)CN2CCc3ccccc3C2)c(C)cc1CN1CCOCC1 (centres unmarked) [Compound 17] | 101 to 1000
18 | O=S1(=O)CCN(c2ccc(OCC(O)CN3CCc4ccccc4C3)cc2)CC1 (centres unmarked) [Compound 18] | 1000 to 10000
19 | OC(COc1ccc(OCc2ccccc2)cc1)CN1CCc2ccccc2C1 (centres unmarked) [Compound 19] | 1000 to 10000

Row | Compound | IC50 [nM]
20 | OC(COc1cccc(OCc2ccccc2)c1)CN1CCc2ccccc2C1 (centres unmarked) [Compound 20] | 1000 to 10000
21 | OC(COC1CCN(Cc2ccccc2)CC1)CN1CCc2ccccc2C1 (centres unmarked) [Compound 21] | 1000 to 10000
22 | CN(Cc1ccc(OCC(O)CN2CCc3ccccc3C2)cc1)C1CCCC1 (centres unmarked) [Compound 24] | 1000 to 10000
23 | OC(COc1ccc(C2CCNCC2)cc1)CN1CCc2ccccc2C1 (centres unmarked) [Compound 25] | 1000 to 10000
24 | CC(C)n1nccc1-c1ccc(OCC(O)CN2CCc3ccccc3C2)cc1 (centres unmarked) [Compound 26] | 10000 to 40000
25 | CC(C)n1ccc(-c2ccc(OCC(O)CN3CCc4ccccc4C3)cc2)n1 (centres unmarked) [Compound 27] | 1000 to 10000
26 | Cc1nn(-c2ccccc2)c(C)c1COCC(O)CN1CCc2ccccc2C1 (centres unmarked) [Compound 28] | 1000 to 10000
27 | COc1cccc2c1CN(CC(O)COc1cccc(CNC3CCCC3)c1)CC2 (centres unmarked) [Compound 29] | 10000 to 40000
28 | O=C(c1ccc(Cn2nccc2-c2ccc(OCC(O)CN3CCc4ccccc4C3)cc2)cc1)N1CCCC1 (centres unmarked) [Compound 31, (4-((5-(4-(3-(3,4-dihydroisoquinolin-2(1H)-yl)-2-hydroxypropoxy)phenyl)-1H-pyrazol-1-yl)methyl)phenyl)(pyrrolidin-1-yl)methanone] | 101 to 1000
29 | COC(COc1cccc(CNC2CCCC2)c1)CN1CCc2ccccc2C1 (centres unmarked) [Compound 32] | 1000 to 10000
30 | CC(C(O)COc1cccc(CNC2CCCC2)c1)N1CCc2ccccc2C1 (centres unmarked) [Compound 33] | 1000 to 10000
31 | O=C(c1ccc(Cn2ccc(-c3ccc(OCC(O)CN4CCc5ccccc5C4)cc3)n2)cc1)N1CCCC1 (centres unmarked) [Compound 34] | 1000 to 10000
32 | OC(COC1CCN(Cc2ccccc2)C1)CN1CCc2ccccc2C1 (centres unmarked) [Compound 35] | 1000 to 10000
33 | OC(CCc1cccc(CNC2CCCC2)c1)CN1CCc2ccccc2C1 (centres unmarked) [Compound 36] | 10000 to 40000
34 | OC(CNc1cccc(CNC2CCCC2)c1)CN1CCc2ccccc2C1 (centres unmarked) [Compound 39, 1-((3-((cyclopentylamino)methyl)phenyl)amino)-3-(3,4-dihydroisoquinolin-2(1H)-yl)propan-2-ol] | 101 to 1000
35 | OC(COc1cccc(-c2cccnc2)c1)CN1CCc2ccccc2C1 (centres unmarked) [Compound 40] | 1000 to 10000
36 | OC(COc1cccc(-c2ccccc2)c1)CN1CCc2ccccc2C1 (centres unmarked) [Compound 43, 1-([1,1′-biphenyl]-3-yloxy)-3-(3,4-dihydroisoquinolin-2(1H)-yl) propan-2-ol] | 101 to 1000
37 | Cn1cc(-c2cccc(OCC(O)CN3CCc4ccccc4C3)c2)cn1 (centres unmarked) [Compound 44] | 1000 to 10000
38 | OC(COCc1ccc(CN2CCOCC2)cc1)CN1CCc2ccccc2C1 (centres unmarked) [Compound 46] | 1000 to 10000

Row | Compound | IC50 [nM]
39 | OC(COc1ccc(-c2ccn[nH]2)cc1)CN1CCc2ccccc2C1 (centres unmarked) [Compound 48] | 1000 to 10000
40 | CC(Oc1cccc(CNC2CCCC2)c1)C(O)CN1CCc2ccccc2C1 (centres unmarked) [Compound 49] | 101 to 1000
41 | CC1c2ccccc2CCN1CC(O)COc1cccc(CNC2CCCC2)c1 (centres unmarked) [Compound 50] | 1000 to 10000
42 | OC(COc1cccc(C2CCCCC2)c1)CN1CCc2ccccc2C1 (centres unmarked) [Compound 52] | 1000 to 10000
43 | CN(CC(O)CN1CCc2ccccc2C1)c1cccc(CNC2CCCC2)c1 (centres unmarked) [Compound 53] | 101 to 1000
44 | OC(COc1cccc(-c2cccc(Oc3ccccc3)c2)c1)CN1CCc2ccccc2C1 (centres unmarked) [Compound 55] | 1000 to 10000
45 | OC(COc1cccc(C2=CCCCC2)c1)CN1CCc2ccccc2C1 (centres unmarked) [Compound 57] | 1000 to 10000
46 | Cn1cnc2cc(-c3cccc(OCC(O)CN4CCc5ccccc5C4)c3)ccc21 (centres unmarked) [Compound 60, 1-(3,4-dihydroisoquinolin-2(1H)-yl)-3-(3-(1-methyl-1H-benzo[d]imidazol-5-yl)phenoxy)propan-2-ol] | 101 to 1000
47 | OC(COc1cccc(-c2cc(C(F)(F)F)ccc2Cl)c1)CN1CCc2ccccc2C1 (centres unmarked) [Compound 62, 1-((2′-chloro-5′-(trifluoromethyl)-[1,1′-biphenyl]-3-yl)oxy)-3-(3,4-dihydroisoquinolin-2(1H)-yl)propan-2-ol] | 101 to 1000
48 | CS(=O)(=O)c1ccc(-c2cccc(OCC(O)CN3CCc4ccccc4C3)c2)cc1 (centres unmarked) [Compound 63] | 101 to 1000
49 | COc1ccc(Cl)c(-c2cccc(OCC(O)CN3CCc4ccccc4C3)c2)c1 (centres unmarked) [Compound 64] | 1000 to 10000
50 | Cn1cnc2ccc(N3CCCC(OCC(O)CN4CCc5ccccc5C4)C3)cc21 (centres unmarked) [Compound 66] | 101 to 1000
51 | CC(=O)c1cccc(-c2cccc(OCC(O)CN3CCc4ccccc4C3)c2)c1 (centres unmarked) [Compound 67] | 101 to 1000
52 | OC(COc1cccc(-c2ccc(Cl)cc2)c1)CN1CCc2ccccc2C1 (centres unmarked) [Compound 69] | 1000 to 10000
53 | Oc1ccc(-c2cccc(OCC(O)CN3CCc4ccccc4C3)c2)cc1F (centres unmarked) [Compound 70] | 1000 to 10000
54 | COc1ccccc1-c1cccc(OCC(O)CN2CCc3ccccc3C2)c1 (centres unmarked) [Compound 71] | 1000 to 10000
55 | OCc1cccc(-c2cccc(OCC(O)CN3CCc4ccccc4C3)c2)c1 (centres unmarked) [Compound 72, 1-(3,4-dihydroisoquinolin-2(1H)-yl)-3-((3′-(hydroxymethyl)-[1,1′-biphenyl]-3-yl)oxy)propan-2-ol] | 101 to 1000
56 | OCc1ccc(-c2cccc(OCC(O)CN3CCc4ccccc4C3)c2)cc1 (centres unmarked) [Compound 73] | 1000 to 10000
